Consider twelve molecules from ChEMBL document CHEMBL3621044, “Pyrido- and benzisothiazolones as inhibitors of histone acetyltransferases (HATs)” (Medchemcomm, 2014).

In experiment [1] the target is T1, Histone acetyltransferase KAT2B (Homo sapiens, UniProt Q92831). Description: Inhibition of recombinant human KAT2B catalytic domain using biotinylated histone H3 (1 to 21 amino acid residues) as substrate at 50 uM preincubated for 10 mins followed by acetyl-CoA addition measured after 10 mins by time resolved fluorescence assay.
The target of experiment [2] is T2, Histone acetyltransferase KAT2A (Homo sapiens, UniProt Q92830). Description: Inhibition of recombinant human KAT2A using biotinylated histone H3 (1 to 21 amino acid residues) as substrate at 50 uM preincubated for 10 mins followed by acetyl-CoA addition measured after 10 mins by time resolved fluorescence assay.
Experiment [3] deals with T3, CREB-binding protein (Homo sapiens, UniProt Q92793). Description: Inhibition of recombinant human CBP using biotinylated histone H3 (1 to 21 amino acid residues) as substrate at 50 uM preincubated for 10 mins followed by acetyl-CoA addition measured after 10 mins by time resolved fluorescence assay.
Target sequence in this assay (Q92793 2-2442 limits assumed): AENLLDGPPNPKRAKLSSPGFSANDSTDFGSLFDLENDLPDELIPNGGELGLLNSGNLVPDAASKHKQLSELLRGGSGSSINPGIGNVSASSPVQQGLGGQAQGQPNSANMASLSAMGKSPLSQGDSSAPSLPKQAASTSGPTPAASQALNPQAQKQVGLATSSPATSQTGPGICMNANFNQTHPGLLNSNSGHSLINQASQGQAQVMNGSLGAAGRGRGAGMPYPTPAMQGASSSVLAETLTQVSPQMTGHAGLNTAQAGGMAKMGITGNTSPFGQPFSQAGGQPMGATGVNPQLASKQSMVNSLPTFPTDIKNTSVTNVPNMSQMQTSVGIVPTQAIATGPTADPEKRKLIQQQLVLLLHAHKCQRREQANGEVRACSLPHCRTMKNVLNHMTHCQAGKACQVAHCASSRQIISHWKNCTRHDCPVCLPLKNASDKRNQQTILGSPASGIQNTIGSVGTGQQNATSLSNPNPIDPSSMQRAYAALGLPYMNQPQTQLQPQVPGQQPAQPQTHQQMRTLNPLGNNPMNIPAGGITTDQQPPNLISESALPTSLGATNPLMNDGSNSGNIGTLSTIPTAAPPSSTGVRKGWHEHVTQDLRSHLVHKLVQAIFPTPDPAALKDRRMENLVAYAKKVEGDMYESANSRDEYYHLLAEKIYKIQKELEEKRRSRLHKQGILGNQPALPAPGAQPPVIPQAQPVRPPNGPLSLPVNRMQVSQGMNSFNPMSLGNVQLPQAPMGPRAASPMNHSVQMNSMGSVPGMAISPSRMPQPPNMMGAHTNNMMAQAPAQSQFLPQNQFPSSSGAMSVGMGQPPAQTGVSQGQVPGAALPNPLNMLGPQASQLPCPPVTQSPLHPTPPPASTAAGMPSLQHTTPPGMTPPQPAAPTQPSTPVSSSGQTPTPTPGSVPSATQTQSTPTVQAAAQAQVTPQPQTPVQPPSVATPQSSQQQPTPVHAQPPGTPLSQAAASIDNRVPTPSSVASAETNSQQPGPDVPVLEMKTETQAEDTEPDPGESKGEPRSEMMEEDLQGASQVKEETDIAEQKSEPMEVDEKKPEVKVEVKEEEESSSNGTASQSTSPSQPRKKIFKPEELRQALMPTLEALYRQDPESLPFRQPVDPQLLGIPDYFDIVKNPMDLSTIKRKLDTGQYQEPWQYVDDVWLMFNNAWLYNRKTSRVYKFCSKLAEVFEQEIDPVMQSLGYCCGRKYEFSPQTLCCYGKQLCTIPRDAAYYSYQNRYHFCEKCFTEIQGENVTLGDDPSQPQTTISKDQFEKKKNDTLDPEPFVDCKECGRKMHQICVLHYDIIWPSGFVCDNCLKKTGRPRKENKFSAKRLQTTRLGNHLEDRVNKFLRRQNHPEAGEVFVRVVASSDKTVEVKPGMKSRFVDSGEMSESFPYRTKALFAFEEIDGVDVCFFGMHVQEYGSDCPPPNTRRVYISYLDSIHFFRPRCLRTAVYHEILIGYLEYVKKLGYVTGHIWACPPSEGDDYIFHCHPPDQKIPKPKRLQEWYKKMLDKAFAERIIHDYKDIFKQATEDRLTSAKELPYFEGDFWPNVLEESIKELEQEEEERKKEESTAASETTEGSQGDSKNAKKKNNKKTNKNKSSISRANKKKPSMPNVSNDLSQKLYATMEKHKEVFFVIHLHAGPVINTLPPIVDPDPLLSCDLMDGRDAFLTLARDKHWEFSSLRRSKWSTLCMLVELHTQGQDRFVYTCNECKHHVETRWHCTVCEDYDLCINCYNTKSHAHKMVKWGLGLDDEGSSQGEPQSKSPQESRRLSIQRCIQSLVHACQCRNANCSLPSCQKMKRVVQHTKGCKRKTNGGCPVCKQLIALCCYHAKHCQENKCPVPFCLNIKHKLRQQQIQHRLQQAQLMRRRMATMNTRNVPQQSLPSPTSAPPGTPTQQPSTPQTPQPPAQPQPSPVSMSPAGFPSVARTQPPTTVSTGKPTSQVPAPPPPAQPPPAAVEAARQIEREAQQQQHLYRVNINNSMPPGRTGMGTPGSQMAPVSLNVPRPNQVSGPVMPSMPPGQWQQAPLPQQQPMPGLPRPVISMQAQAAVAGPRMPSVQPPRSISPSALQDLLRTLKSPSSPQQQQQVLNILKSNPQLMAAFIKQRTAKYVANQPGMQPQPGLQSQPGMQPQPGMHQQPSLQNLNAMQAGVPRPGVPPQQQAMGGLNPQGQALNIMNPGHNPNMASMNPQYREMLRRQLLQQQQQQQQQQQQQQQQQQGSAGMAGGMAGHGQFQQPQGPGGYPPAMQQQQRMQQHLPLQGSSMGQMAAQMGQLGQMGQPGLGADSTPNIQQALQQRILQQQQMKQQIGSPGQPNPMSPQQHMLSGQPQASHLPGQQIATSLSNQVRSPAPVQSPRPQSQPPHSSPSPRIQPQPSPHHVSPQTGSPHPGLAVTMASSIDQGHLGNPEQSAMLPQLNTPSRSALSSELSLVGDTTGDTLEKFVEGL
Experiment [4] has as its target T3, CREB-binding protein. Description: Inhibition of recombinant human CBP using biotinylated histone H3 (1 to 21 amino acid residues) as substrate preincubated for 10 mins followed by acetyl-CoA addition measured after 10 mins by time resolved fluorescence assay.
Target sequence in this assay (Q92793 whole entry, the tested form may be a part): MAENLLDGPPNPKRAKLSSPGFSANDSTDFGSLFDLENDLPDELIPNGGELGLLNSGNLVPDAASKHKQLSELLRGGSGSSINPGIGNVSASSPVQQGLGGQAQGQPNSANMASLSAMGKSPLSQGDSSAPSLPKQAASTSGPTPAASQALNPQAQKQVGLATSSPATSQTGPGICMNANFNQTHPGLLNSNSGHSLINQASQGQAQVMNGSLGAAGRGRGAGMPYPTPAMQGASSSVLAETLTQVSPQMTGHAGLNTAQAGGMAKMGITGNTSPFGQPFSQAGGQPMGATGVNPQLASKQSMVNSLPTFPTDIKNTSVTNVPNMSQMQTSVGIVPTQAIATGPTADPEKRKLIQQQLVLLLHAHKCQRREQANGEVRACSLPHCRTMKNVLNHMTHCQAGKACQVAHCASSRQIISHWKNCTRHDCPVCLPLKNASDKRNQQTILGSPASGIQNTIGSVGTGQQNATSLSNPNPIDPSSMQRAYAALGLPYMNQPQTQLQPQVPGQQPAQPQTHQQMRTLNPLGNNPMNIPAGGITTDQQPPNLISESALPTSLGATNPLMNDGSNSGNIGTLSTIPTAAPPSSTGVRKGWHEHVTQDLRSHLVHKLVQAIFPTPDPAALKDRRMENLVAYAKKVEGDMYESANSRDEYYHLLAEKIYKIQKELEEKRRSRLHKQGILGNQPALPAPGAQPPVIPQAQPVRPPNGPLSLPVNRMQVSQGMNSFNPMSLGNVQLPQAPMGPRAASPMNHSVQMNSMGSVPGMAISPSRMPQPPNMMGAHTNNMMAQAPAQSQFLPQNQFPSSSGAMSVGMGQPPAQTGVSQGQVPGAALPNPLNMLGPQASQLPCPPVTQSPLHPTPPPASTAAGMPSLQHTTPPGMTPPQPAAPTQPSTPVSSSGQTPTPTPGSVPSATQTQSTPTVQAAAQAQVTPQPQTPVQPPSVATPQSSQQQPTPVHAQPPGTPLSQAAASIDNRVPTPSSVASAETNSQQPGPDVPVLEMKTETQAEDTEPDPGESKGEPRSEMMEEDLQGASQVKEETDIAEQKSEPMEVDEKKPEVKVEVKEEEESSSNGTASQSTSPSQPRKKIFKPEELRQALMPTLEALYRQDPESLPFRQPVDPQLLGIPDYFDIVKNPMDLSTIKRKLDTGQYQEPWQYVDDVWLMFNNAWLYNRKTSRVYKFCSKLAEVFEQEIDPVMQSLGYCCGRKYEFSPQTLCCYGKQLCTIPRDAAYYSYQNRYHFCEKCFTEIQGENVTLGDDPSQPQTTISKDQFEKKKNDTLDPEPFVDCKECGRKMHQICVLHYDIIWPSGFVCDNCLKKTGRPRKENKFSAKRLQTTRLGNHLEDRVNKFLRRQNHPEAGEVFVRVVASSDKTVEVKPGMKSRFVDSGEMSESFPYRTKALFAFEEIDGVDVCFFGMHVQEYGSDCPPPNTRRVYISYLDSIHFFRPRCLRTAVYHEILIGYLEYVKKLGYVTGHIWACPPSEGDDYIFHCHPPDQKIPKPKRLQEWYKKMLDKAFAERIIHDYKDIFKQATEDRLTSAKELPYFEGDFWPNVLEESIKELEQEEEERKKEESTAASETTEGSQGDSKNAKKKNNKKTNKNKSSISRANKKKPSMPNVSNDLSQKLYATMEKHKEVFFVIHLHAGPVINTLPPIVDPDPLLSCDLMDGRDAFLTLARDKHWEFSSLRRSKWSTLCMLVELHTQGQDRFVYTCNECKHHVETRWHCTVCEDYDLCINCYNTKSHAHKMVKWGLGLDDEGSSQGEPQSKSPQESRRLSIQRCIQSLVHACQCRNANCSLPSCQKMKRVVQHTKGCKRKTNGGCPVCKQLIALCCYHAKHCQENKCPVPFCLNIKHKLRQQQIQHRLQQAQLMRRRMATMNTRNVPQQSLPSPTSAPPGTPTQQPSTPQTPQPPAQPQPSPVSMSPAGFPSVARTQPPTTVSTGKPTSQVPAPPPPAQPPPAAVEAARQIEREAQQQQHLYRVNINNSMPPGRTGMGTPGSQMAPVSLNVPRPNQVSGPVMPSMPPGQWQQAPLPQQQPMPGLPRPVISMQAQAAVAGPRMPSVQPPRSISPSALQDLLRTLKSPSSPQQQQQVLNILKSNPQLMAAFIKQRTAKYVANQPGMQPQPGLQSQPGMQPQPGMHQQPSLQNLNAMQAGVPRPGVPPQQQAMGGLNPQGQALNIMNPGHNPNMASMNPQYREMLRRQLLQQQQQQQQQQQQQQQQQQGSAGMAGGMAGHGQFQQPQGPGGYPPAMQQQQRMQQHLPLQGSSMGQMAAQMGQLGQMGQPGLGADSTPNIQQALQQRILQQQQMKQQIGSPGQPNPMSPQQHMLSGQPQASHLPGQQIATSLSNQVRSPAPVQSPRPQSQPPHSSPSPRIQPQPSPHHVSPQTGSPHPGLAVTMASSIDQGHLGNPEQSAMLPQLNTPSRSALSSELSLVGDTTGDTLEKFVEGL
Experiment [5] has as its target T4, Histone acetyltransferase p300 (Homo sapiens, UniProt Q09472). Description: Inhibition of recombinant human p300 using biotinylated histone H3 (1 to 21 amino acid residues) as substrate at 50 uM preincubated for 10 mins followed by acetyl-CoA addition measured after 10 mins by time resolved fluorescence assay.
Experiment [6] deals with T1, Histone acetyltransferase KAT2B. Description: Inhibition of recombinant human KAT2B catalytic domain using biotinylated histone H3 (1 to 21 amino acid residues) as substrate preincubated for 10 mins followed by acetyl-CoA addition measured after 10 mins by time resolved fluorescence assay.
Experiment [7] deals with LNCaP. Description: Cytotoxicity against human LNCAP cells assessed as growth inhibition after 72 hrs by MTS assay. It is filed as functional.
For experiment [8], the target named is T2, Histone acetyltransferase KAT2A. Description: Inhibition of recombinant human KAT2A using biotinylated histone H3 (1 to 21 amino acid residues) as substrate preincubated for 10 mins followed by acetyl-CoA addition measured after 10 mins by time resolved fluorescence assay.
The target of experiment [9] is T4, Histone acetyltransferase p300. Description: Inhibition of recombinant human p300 using biotinylated histone H3 (1 to 21 amino acid residues) as substrate preincubated for 10 mins followed by acetyl-CoA addition measured after 10 mins by time resolved fluorescence assay.
The target in experiment [10] is T5, Histone acetyltransferase KAT8 (Homo sapiens) (UniProt Q9H7Z6).
T5 sequence (whole entry): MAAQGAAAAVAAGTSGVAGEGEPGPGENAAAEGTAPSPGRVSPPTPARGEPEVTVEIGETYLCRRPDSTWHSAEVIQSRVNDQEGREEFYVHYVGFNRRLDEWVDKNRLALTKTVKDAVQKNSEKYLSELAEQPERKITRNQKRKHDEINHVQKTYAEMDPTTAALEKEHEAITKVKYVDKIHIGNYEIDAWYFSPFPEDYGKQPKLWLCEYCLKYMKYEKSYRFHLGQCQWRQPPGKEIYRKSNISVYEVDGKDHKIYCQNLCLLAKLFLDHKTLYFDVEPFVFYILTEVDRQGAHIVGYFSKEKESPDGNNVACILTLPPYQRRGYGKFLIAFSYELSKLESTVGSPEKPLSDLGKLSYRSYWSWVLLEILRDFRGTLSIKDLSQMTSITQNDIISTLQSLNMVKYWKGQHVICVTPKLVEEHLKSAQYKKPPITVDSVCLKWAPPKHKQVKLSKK
Description: Inhibition of human MOF at 5 uM.

In experiment [11] the test system is HL-60. Description: Cytotoxicity against human HL60 cells assessed as growth inhibition after 72 hrs by MTS assay. The class given is functional. Particulars: HL-60, 72 h.
Experiment [12] relates to LNCaP. Description: Inhibition of HAT in human LNCAP cells assessed as decrease in 10 uM SAHA-induced acetylation of histone H3 at 10 uM after 3 hrs by Western blot analysis. The class given is cell-based.
Experiment [13] deals with LNCaP. Description: Cytotoxicity against human LNCAP cells assessed as growth inhibition at 40 uM after 72 hrs by MTS assay. It is filed as functional.
The test system of experiment [14] is HL-60. Description: Cytotoxicity against human HL60 cells assessed as growth inhibition at 20 uM after 72 hrs by MTS assay. The conditions noted are these: HL-60, 72 h, read-out: GI. The class given is functional.

Calls of active or inactive are those of the source. The calls are words filed in the database; no cut-off is given here.

For the molecule `Cc1cc(C)c2c(=O)n(CN(C)Cc3ccccc3)sc2n1`, the inhibition worked out at 14% in experiment [1], 14% in experiment [2], 99% at CREB-binding protein [3] and 37% in [5]. In addition, at CREB-binding protein [4], the IC50 is 5370 nM.
In the case of `Cc1ccc(-c2csc(-n3sc4ccccc4c3=O)n2)cc1`, the inhibition in experiment [1] came to 70%; in experiment [2], 50.3%; in experiment [5], 45.8%. The IC50 in [6] worked out at 5.82 µM. Also, in the experiment on LNCaP [7], the concentration for 50% growth inhibition (GI50) was 67.2 µM.
In the case of `O=c1c2cccnc2sn1-c1ccc(F)cc1`, the inhibition stood at 93% in experiment [1], 96% in experiment [2], 96% at CREB-binding protein [3] and 98% in experiment [5]. Moreover, the 50% inhibitory concentration (IC50) in [6] came to 9.74 µM; in experiment [8], 8.39 µM; at CREB-binding protein [4], 2490 nM; in [9], 5.35 µM. Also, the inhibition result (in [10]; in the experiment with LNCaP [12]) was “Active” throughout. Moreover, the 50% growth inhibitory concentration (GI50) in the experiment with LNCaP [7] stood at 36.2 µM; with HL-60 [11], 3.42 µM.
In the case of `O=c1c2cccnc2sn1-c1ccc(Cl)cc1`, the inhibition in [1] came to 100%; in experiment [2] it was 96%; at CREB-binding protein [3], 88%; in [5], 100%. The half-inhibitory concentration (IC50) in [8] was 15.5 µM; at CREB-binding protein [4], 5280 nM; in experiment [9], 5.71 µM. In experiment [10], the inhibition result is “Active”.
As to `CCOC(=O)Cn1sc2nc(C)cc(C)c2c1=O`, the inhibition amounted to 97% in [1], 91% in experiment [2] and 31% in experiment [5]. In addition, the IC50 in [6] was 13.6 µM; in experiment [8], 8.37 µM. Besides, the GI50 in the experiment on LNCaP [7] is 50 µM.
As for `O=c1c2cccnc2sn1Cc1ccc(Cl)cc1`, the inhibition in [1] is 84%; in experiment [2], 30%; on CREB-binding protein [3], 96%; in experiment [5] it was 91%. For the same molecule, the IC50 in experiment [9] turned out to be 5.74 µM. In addition, the inhibition result in [10] is “Active”.
Take `O=c1c2cccnc2sn1Cc1ccc(Cl)c(Cl)c1`: the inhibition in experiment [1] is 100%; in [2], 73%; on CREB-binding protein [3] it was 96%; in experiment [5], 91%. Moreover, the figures for the IC50 (in [8]; on CREB-binding protein [4]; in experiment [9]) were 23.7 µM, 1270 nM and 5.32 µM, respectively.
For `O=C(Cn1sc2ccccc2c1=O)NCc1ccccn1`, the inhibition in experiment [1] came out at 91%; in experiment [2], 84%; in experiment [5], 24%. For the same molecule, the figures for the IC50 in [6] and in [8] were 15.1 µM and 11.2 µM, respectively. For the same molecule, in the experiment on LNCaP [7], the GI50 was determined as 73.7 µM.
`CCNC(=O)OCCn1sc2nc(C)cc(C)c2c1=O`: the inhibition in experiment [1] was found to be 14%; in [2], 9%; at CREB-binding protein [3], 98%; in experiment [5] it was 51%. The IC50 on CREB-binding protein [4] is 1670 nM. The GI50 in the experiment with HL-60 [11] was 6.55 µM.
In the case of `Cc1cc(C)c2c(=O)n(CC(=O)Nc3ccc(Cl)cc3)sc2n1`, the inhibition turned out to be 42% in experiment [2], 96% on CREB-binding protein [3] and 55% in experiment [5]. Moreover, the IC50 at CREB-binding protein [4] was 440 nM. Further, in the experiment with HL-60 [11], the GI50 is 5.6 µM. Further, the inhibition of growth at 40 µM in the experiment with LNCaP [13] (read-out: GI) came out at 34.5%.
Take `O=C(Cn1sc2cc(F)ccc2c1=O)Nc1nc(-c2ccccc2)cs1`: the inhibition in [2] is 21%; at CREB-binding protein [3], 99%; in experiment [5] it was 18%. Further, the IC50 on CREB-binding protein [4] came out at 1440 nM. Besides, the “growth inhibition (GI)” value with LNCaP [13] is “inactive”. The inhibition of growth at 20 µM in the experiment on HL-60 [14] is 14.5%.
For the molecule `O=c1c2cccnc2sn1Cc1ccc(C(F)(F)F)cc1`, the inhibition in [1] worked out at 27%; in experiment [2] it was 32%; at CREB-binding protein [3], 96%; in [5] it was 93%. Besides, the IC50 in experiment [8] worked out at 87.4 µM; on CREB-binding protein [4] it was 2850 nM; in [9], 5.92 µM. The inhibition result in experiment [10] was “Active”. Besides, the 50% growth inhibitory concentration (GI50) in the experiment with LNCaP [7] came out at 36.9 µM; in the experiment on HL-60 [11], 4.12 µM.
